Data taken from article PMC3654253 (Biochemical pharmacology, 2013).
Entries after “also recorded” stand apart in the source; their conditions may differ.

Assays:
[1] = tested on: NaV channels; conditions: cited from earlier work
[2] = tested on: insect NaV channels (cockroach DUM neurons); test: Whole-cell patch-clamp, NaV channel currents; assay type: cell-based, American cockroach (Periplaneta americana)

NC1=N[C@H](O)[C@H]2[C@H]3O[C@]4(O)O[C@@H]([C@@H](O)[C@@]2(N1)[C@@H]4O)[C@]3(O)CO [TTX, tetrodotoxin]
effect on peak INa [1]: reduce peak INa | inhibition of INa by TTX [2]: complete INa inhibition; also recorded: Complete block of INa
